How the values were obtained:
[1] = test system: blackgrass; test: Test B pre/postemergence blackgrass; assay type: in vivo, Alopecurus myosuroides
Summary of the method: (§1)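 Test chemicals in a non-phytotoxic solvent mixture with surfactant were sprayed preemergence onto planted seeds and postemergence onto plants 2 to 18 cm tall (1- to 4-leaf stage). After twelve to sixteen days in a greenhouse, injury was visually rated against untreated controls from 0 (no effect) to 10 (complete control).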

[2] = test system: surinam grass; test: Test B pre/postemergence surinam grass; assay type: in vivo, Brachiaria decumbens
Summary of the method: as §1

[3] = test system: cocklebur; test: Test B pre/postemergence cocklebur; assay type: in vivo, Xanthium strumarium
Summary of the method: as §1

[4] = test system: corn; test: Test B pre/postemergence corn; assay type: in vivo, Zea mays
Summary of the method: as §1

[5] = test system: crabgrass; test: Test B pre/postemergence crabgrass; assay type: in vivo, Digitaria sanguinalis
Summary of the method: as §1

[6] = test system: giant foxtail; test: Test B pre/postemergence giant foxtail; assay type: in vivo, Setaria faberii
Summary of the method: as §1

[7] = test system: pigweed; test: Test B pre/postemergence pigweed; assay type: in vivo, Amaranthus retroflexus
Summary of the method: as §1

[8] = test system: rape; test: Test B pre/postemergence rape; assay type: in vivo, Brassica napus
Summary of the method: as §1

[9] = test system: soybean; test: Test B pre/postemergence soybean; assay type: in vivo, Glycine max
Summary of the method: as §1

[10] = test system: sugar beet; test: Test B pre/postemergence sugar beet; assay type: in vivo, Beta vulgaris
Summary of the method: as §1

[11] = test system: wheat; test: Test B pre/postemergence wheat; assay type: in vivo, Triticum aestivum
Summary of the method: as §1

[12] = test system: purple nutsedge; test: Test B pre/postemergence purple nutsedge; assay type: in vivo, Cyperus rotundus
Summary of the method: as §1

[13] = test system: rice; test: Test B flood test rice; assay type: in vivo, Oryza sativa
Summary of the method: (§2)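 Plants were grown to the 2-leaf stage before treatment with test chemical, then held in a greenhouse for twelve to sixteen days. Injury was visually rated against untreated controls on a 0–10 scale, where 0 is no effect and 10 is complete control.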

[14] = test system: smallflower flatsedge; test: Test B flood test smallflower flatsedge; assay type: in vivo, Cyperus difformis
Summary of the method: as §2

[15] = test system: duck salad; test: Test B flood test duck salad; assay type: in vivo, Heteranthera limosa
Summary of the method: as §2

[16] = test system: bamyardgrass; test: Test B flood test barnyardgrass; assay type: in vivo, Echinochloa crus-galli
Summary of the method: as §2

[17] = Postemergence, Rate 125 g/ha, scale of 0 to 10 where 0 is no effect and 10 is complete control
[18] = Postemergence, Rate 250 g/ha, scale of 0 to 10, 0 is no effect, 10 is complete control
[19] = Postemergence, Rate 500 g/ha, scale of 0 to 10 where 0 is no effect and 10 is complete control
[20] = Preemergence, Rate 125 g/ha, scale of 0 to 10 where 0 is no effect and 10 is complete control
[21] = Preemergence, Rate 250 g/ha, scale 0 to 10 (0 no effect, 10 complete control)
[22] = Preemergence, Rate 500 g/ha, scale of 0 to 10 where 0 is no effect and 10 is complete control
[23] = Rate 1000 g/ha, Preemergence, scale 0 to 10 (0 no effect, 10 complete control)
[24] = Postemergence, Rate 1000 g/ha, scale 0 to 10 (0 no effect, 10 complete control)
[25] = Pre-emergence, Rate 1000 g/ha, scale 0 to 10 (0 no effect, 10 complete control)
[26] = Rate 125 g/ha, under heading Pre-emergence, flood test species, visual evaluation after twelve to sixteen days
[27] = Rate 250 g/ha, Pre-emergence (flood test species), scale 0 to 10, 0 is no effect, 10 is complete control
[28] = Rate 500 g/ha, Pre-emergence section of Table B, 0 to 10 scale (0 no effect, 10 complete control)

COC(=O)C(C)n1c(=O)on(C(=O)N(c2ccc(F)cc2)C(C)C)c1=O (stereo not drawn) [Compound 616]
Plant response rating, Blackgrass [1, 17]: 0
Blackgrass plant response rating [1, 18]: 0
Plant response rating, Blackgrass [1, 19]: 5
Blackgrass plant response rating [1, 20]: 0
Plant response rating, Blackgrass [1, 21]: 4
Blackgrass plant response rating [1, 22]: 6
Plant response rating, Blackgrass [1, 23]: 8
Plant response rating, B. signalgrass [2, 17]: 0
B. signalgrass plant response rating [2, 18]: 1
Plant response rating, B. signalgrass [2, 19]: 4
B. signalgrass plant response rating [2, 24]: 5
B. signalgrass plant response rating [2, 20]: 0
Plant response rating, B. signalgrass [2, 21]: 0
B. signalgrass plant response rating [2, 22]: 1
Plant response rating, B. signalgrass [2, 23]: 6
Plant response rating, Cocklebur [3, 17]: 0
Cocklebur plant response rating [3, 18]: 0
Plant response rating, Cocklebur [3, 19]: 0
Cocklebur plant response rating [3, 24]: 3
Cocklebur plant response rating [3, 20]: 0
Plant response rating, Cocklebur [3, 21]: 0
Plant response rating, Cocklebur [3, 22]: 0
Plant response rating, Cocklebur [3, 23]: 0
Plant response rating, Corn [4, 17]: 0
Corn plant response rating [4, 18]: 0
Plant response rating, Corn [4, 19]: 0
Corn plant response rating [4, 24]: 0
Corn plant response rating [4, 20]: 0
Plant response rating, Corn [4, 21]: 0
Plant response rating, Corn [4, 22]: 0
Plant response rating, Corn [4, 23]: 2
Plant response rating, Crabgrass [5, 17]: 2
Crabgrass plant response rating [5, 18]: 4
Plant response rating, Crabgrass [5, 19]: 7
Crabgrass plant response rating [5, 24]: 8
Crabgrass plant response rating [5, 20]: 0
Plant response rating, Crabgrass [5, 21]: 0
Plant response rating, Crabgrass [5, 22]: 1
Plant response rating, Crabgrass [5, 23]: 6
Plant response rating, Giant foxtail [6, 17]: 3
Giant foxtail plant response rating [6, 18]: 3
Plant response rating, Giant foxtail [6, 19]: 6
Giant foxtail plant response rating [6, 24]: 7
Giant foxtail plant response rating [6, 20]: 1
Plant response rating, Giant foxtail [6, 21]: 7
Plant response rating, Giant foxtail [6, 22]: 5
Plant response rating, Giant foxtail [6, 23]: 9
Plant response rating, Redroot pigweed [7, 17]: 0
Redroot pigweed plant response rating [7, 18]: 0
Plant response rating, Redroot pigweed [7, 19]: 1
Redroot pigweed plant response rating [7, 24]: 3
Redroot pigweed plant response rating [7, 20]: 1
Plant response rating, Redroot pigweed [7, 21]: 8
Plant response rating, Redroot pigweed [7, 22]: 10
Plant response rating, Redroot pigweed [7, 23]: 10
Plant response rating, Rape [8, 17]: 0
Rape plant response rating [8, 18]: 0
Plant response rating, Rape [8, 19]: 0
Rape plant response rating [8, 24]: 3
Rape plant response rating [8, 20]: 0
Plant response rating, Rape [8, 21]: 0
Plant response rating, Rape [8, 22]: 3
Plant response rating, Rape [8, 23]: 6
Soybean plant response rating [9, 18]: 4
Plant response rating, Soybean [9, 19]: 4
Soybean plant response rating [9, 24]: 4
Soybean plant response rating [9, 20]: 0
Plant response rating, Soybean [9, 21]: 0
Plant response rating, Soybean [9, 22]: 0
Plant response rating, Soybean [9, 23]: 5
Plant response rating, Sugarbeets [10, 17]: 0
Sugarbeets plant response rating [10, 18]: 0
Plant response rating, Sugarbeets [10, 19]: 2
Sugarbeets plant response rating [10, 24]: 2
Sugarbeets plant response rating [10, 20]: 0
Plant response rating, Sugarbeets [10, 21]: 0
Plant response rating, Sugarbeets [10, 22]: 1
Plant response rating, Sugarbeets [10, 23]: 7
Plant response rating, Wheat [11, 17]: 0
Wheat plant response rating [11, 18]: 0
Plant response rating, Wheat [11, 19]: 0
Wheat plant response rating [11, 24]: 0
Wheat plant response rating [11, 20]: 0
Plant response rating, Wheat [11, 21]: 0
Plant response rating, Wheat [11, 22]: 0
Plant response rating, Wheat [11, 23]: 0
Plant response rating, Nutsedge [12, 17]: 0
Nutsedge plant response rating [12, 18]: 0
Plant response rating, Nutsedge [12, 19]: 0
Plant response rating, Nutsedge [12, 21]: 0
Plant response rating, Nutsedge [12, 22]: 0
Plant response rating, Nutsedge [12, 23]: 0
Rice plant response rating [13, 25]: 0
Rice plant response rating (0 to 10 scale, 0 is no effect, 10 is complete control) [13, 26]: 0
Rice plant response rating [13, 27]: 0
Rice plant response rating [13, 28]: 0
S. Flatsedge plant response rating [14, 25]: 0
S. Flatsedge plant response rating (0 to 10 scale, 0 is no effect, 10 is complete control) [14, 26]: 0
S. Flatsedge plant response rating [14, 27]: 0
S. Flatsedge plant response rating [14, 28]: 0
Ducksalad plant response rating [15, 25]: 0
Ducksalad plant response rating (0 to 10 scale, 0 is no effect, 10 is complete control) [15, 26]: 0
Ducksalad plant response rating [15, 27]: 0
Ducksalad plant response rating [15, 28]: 0
Barnyardgrass plant response rating [16, 25]: 0
Barnyardgrass plant response rating (0 to 10 scale, 0 is no effect, 10 is complete control) [16, 26]: 0
Barnyardgrass plant response rating [16, 27]: 0
Barnyardgrass plant response rating [16, 28]: 0

From patent US6737383B1, “Herbicidal oxadiazolidines” (priority 1999, dated 2004)
